Experimental data reported in US5124322A, “Dipeptide collagenase inhibitors” (Beecham Group p.l.c., priority 1988, dated 1992).
Like-named read-outs stand apart in the source and are kept apart here.

Target: T1, human lung fibroblast collagenase (Homo sapiens, UniProt P03956)
T1 construct: from culture supernatants from the human lung fibroblast cell line, WI-38; endogenous in cells; host or cells: WI-38 human lung fibroblast cell line (culture supernatant)
T1 sequence (P03956 100-469): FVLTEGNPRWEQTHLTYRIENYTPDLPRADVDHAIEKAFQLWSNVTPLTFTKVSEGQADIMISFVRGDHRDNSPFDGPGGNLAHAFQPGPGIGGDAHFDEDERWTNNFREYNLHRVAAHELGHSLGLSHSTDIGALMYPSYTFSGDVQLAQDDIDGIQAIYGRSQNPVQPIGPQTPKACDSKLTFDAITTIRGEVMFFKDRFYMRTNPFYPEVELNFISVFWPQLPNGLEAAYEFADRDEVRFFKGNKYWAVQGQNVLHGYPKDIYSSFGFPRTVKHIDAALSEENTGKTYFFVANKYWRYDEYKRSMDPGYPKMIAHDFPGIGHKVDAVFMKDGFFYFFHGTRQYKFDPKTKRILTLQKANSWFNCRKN
Assay: Collagenase inhibitor assay, human lung fibroblast collagenase (14C-collagen fibril degradation)
Type: biochemical
Conditions: collagenase from WI-38 culture supernatants
Experimental: The test is performed essentially as in Cawston and Barrett, Anal. Biochem. 99, 340-345 (1979). Compounds for testing are dissolved in methanol and added to collagenase (purified from cultures of rabbit bone or from culture supernatants from the human lung fibroblast cell line, WI-38) in buffer. In order to ensure that thiol collagenase inhibitors remained unoxidised, β-mercaptoethanol may be incorporated in the methanol solvent and/or the diluent buffers. The minimal direct effect of β-mercaptoethanol on the degradation of collagen by human or rabbit collagenase is controlled for. After a 5-15 min pre-incubation at 37° C., the assay tubes are cooled to 4° C. and ^14 C-acetylated rat skin […] collagen is added. The assay tubes are incubated at 37° C. overnight. The ^14 C-collagen forms insoluble fibrils which are the substrate for the enzyme.
To terminate the assay, the assay tubes are spun at 12000 rpm for 15 min. Undigested ^14 C-collagen is pelleted, while digested ^14 C-collagen is found as soluble peptides in the supernatant. A sample of the supernatant is taken for liquid scintillation counting.
The activity of collagenase inhibitors (IC50 : 50% inhibitory concentration) is expressed as that concentration of compound that inhibits a known (standard) concentration of enzyme by 50%.

[1] = * = +mercaptoethanol, read-out: IC50, Inhibition of human lung fibroblast collagenase, +mercaptoethanol
[2] = without mercaptoethanol, read-out: IC50, Inhibition of human lung fibroblast collagenase

IC50 [1] [µM] | IC50 [2] [µM] | Molecule
0.19 | 1.5 | 4-Chloro-2-mercapto-N-[2-(3-indolyl)-1-(S)-(methyl-aminocarbonyl)ethyl]-α-(2-methylpropyl)phenylpropanamide [Example 8]
0.25 | 1.8 | CNC(=O)[C@H](Cc1ccc(OC)cc1)NC(=O)C(Cc1ccc(Cl)cc1S)CC(C)C (stereo partly drawn) [Example 5, 4-Chloro-2-mercapto-N-[2-(4-methoxyphenyl)-1-(S)-(methylaminocarbonyl)ethyl]-α-(2-methylpropyl)phenylpropanamide]
